Reference: patent US20150254400A1, “GROUPING FOR C[…] CANCER” (AGENCY FOR SCIENCE, TECHNOLOGY AND RESEARCH, priority 2012, published 2015)
Entries after “also recorded” stand apart in the source; their conditions may differ.

Tests used:
gastric adenocarcinoma = experiment: Patient survival, surgery plus adjuvant 5-FU based therapy versus surgery alone (Kaplan-Meier, Cox regression); assay type: in vivo, human; settings: for HR (95% CI): Multivariate Cox (treatment + stage)
Experimental: A study was done to determine whether there was a difference in survival among the three subtypes. In this study, cancer-specific death was considered as an event unless stated otherwise.
Data from 188 patients in the SG201 Singapore cohort for which survival information was available was analyzed.
Many of the patients in the Singapore cohort were treated with 5-FU. To investigate the effect of 5-FU treatment on patient survival, the survival of Singapore and Australian patients treated with surgery alone were compared to that of patients treated by surgery and adjuvant 5-FU based therapy.
The clinical decision on administration of 5-FU was based on multiple factors, including the patient's general health, risk of relapse (estimated largely by disease stage), treatment-related toxicities, and patient preference.
FIGS. 8A to F show Kaplan-Meier plots for surgery plus 5-FU versus surgery alone for each of the three subtypes.

[1] = system: gastric cancer cell lines; experiment: 5-FU sensitivity in vitro of gastric cancer cell lines assigned to the three subtypes by GCPred; assay type: cell-based
Description: It was then examined whether there are differences in 5-FU sensitivity, in vitro, between gastric cancer cell lines assigned to the three subtypes.
GCPred was first used to predict the subtypes of 28 cell lines for which 5-FU GI50 values had previously been determined.

NCI-60 cell lines = experiment: 5-FU sensitivity of NCI-60 cell lines classified into the three subtypes by GCPred; assay type: cell-based; settings: metabolic versus invasive subtype NCI-60 cells, Wilcoxon rank sum test p=0.036
Description: In addition, GCPred was used to classify the NCI-60 cell lines into the three subtypes.

O=c1[nH]cc(F)c(=O)[nH]1 [5-FU, 5-fluorouracil]
Hazard Ratio (95% CI), treatment (gastric adenocarcinoma; 197 patients in SG and AU cohorts, model ~subtype * treatment + stage, 5-FU vs surgery alone (=1)): 1.437 (0.728, 2.835)
Hazard Ratio (95% CI), subtype: treatment interaction, Invasive: 5-FU (gastric adenocarcinoma; 197 patients in SG and AU cohorts, model ~subtype * treatment + stage, reference Proliferative: 5-FU (=1)): 0.722 (0.287, 1.817)
HR (95% CI) (gastric adenocarcinoma; Australian cohort, invasive subtype, 5-FU vs surgery alone (=1)): 0.222 (0.059, 0.833)
HR (95% CI) (gastric adenocarcinoma; Australian cohort, proliferative subtype, 5-FU vs surgery alone (=1)): 1.938 (0.369, 10.170)
HR (95% CI) (gastric adenocarcinoma; Singapore cohort, invasive subtype, 5-FU vs surgery alone (=1)): 1.062 (0.469, 2.407)
HR (95% CI) (gastric adenocarcinoma; Singapore cohort, proliferative subtype, 5-FU vs surgery alone (=1)): 2.105 (0.879, 5.043)
Deaths among 5-FU treated patients (gastric adenocarcinoma; Singapore cohort, metabolic subtype): no deaths
Hazard ratio (95% CI) (gastric adenocarcinoma; Univariate Cox regression, Singapore cohort, all subtypes, 5-FU vs surgery alone (=1), cancer-specific death): 1.656 (0.983, 2.788)
5-FU effect on patient survival (gastric adenocarcinoma; invasive subtype): No effect
5-FU effect on patient survival (gastric adenocarcinoma; metabolic subtype): Beneficial
Survival, Kaplan-Meier, surgery plus 5-FU versus surgery alone (gastric adenocarcinoma; metabolic-subtype patients): benefited; also recorded: better
Disease-free survival, Kaplan-Meier, 5-FU treatment compared to surgery alone (gastric adenocarcinoma; metabolic-subtype patients, log rank test p=0.025): benefited significantly
Benefit from 5-FU treatment by multivariate Cox regression (gastric adenocarcinoma; patients with invasive and proliferative subtypes): does not suggest any benefit
Survival, Kaplan-Meier, surgery plus 5-FU versus surgery alone (gastric adenocarcinoma; patients with invasive and proliferative subtypes, not adjusted for TNM stage): worse
5-FU effect on patient survival (gastric adenocarcinoma; proliferative subtype): No effect
Sensitivity to 5-FU (GI50 values previously determined) ([1]; 28 cell lines, metabolic versus proliferative subtype cells, Wilcoxon rank sum test p=1.47×10-3): significantly more sensitive
Chemosensitivity in cell lines ([1]; metabolic subtype cell lines): 5-FU
Sensitivity to 5-FU (NCI-60 cell lines): preferential sensitivity
